Measurements as given in patent US20220280476A1, “KCNT1 INHIBITORS AND METHODS OF USE” (Praxis Precision Medicines, Inc., priority 2019, published 2022).

Target: T1, KCNT1 (KNa1.1, Slack) (Homo sapiens, UniProt Q5JUK3)
T1 construct: expressed in transfected cells; host or cells: HEK-TREX (tetracycline-inducible HEK cell line)
T1 sequence (Q5JUK3 1-1230): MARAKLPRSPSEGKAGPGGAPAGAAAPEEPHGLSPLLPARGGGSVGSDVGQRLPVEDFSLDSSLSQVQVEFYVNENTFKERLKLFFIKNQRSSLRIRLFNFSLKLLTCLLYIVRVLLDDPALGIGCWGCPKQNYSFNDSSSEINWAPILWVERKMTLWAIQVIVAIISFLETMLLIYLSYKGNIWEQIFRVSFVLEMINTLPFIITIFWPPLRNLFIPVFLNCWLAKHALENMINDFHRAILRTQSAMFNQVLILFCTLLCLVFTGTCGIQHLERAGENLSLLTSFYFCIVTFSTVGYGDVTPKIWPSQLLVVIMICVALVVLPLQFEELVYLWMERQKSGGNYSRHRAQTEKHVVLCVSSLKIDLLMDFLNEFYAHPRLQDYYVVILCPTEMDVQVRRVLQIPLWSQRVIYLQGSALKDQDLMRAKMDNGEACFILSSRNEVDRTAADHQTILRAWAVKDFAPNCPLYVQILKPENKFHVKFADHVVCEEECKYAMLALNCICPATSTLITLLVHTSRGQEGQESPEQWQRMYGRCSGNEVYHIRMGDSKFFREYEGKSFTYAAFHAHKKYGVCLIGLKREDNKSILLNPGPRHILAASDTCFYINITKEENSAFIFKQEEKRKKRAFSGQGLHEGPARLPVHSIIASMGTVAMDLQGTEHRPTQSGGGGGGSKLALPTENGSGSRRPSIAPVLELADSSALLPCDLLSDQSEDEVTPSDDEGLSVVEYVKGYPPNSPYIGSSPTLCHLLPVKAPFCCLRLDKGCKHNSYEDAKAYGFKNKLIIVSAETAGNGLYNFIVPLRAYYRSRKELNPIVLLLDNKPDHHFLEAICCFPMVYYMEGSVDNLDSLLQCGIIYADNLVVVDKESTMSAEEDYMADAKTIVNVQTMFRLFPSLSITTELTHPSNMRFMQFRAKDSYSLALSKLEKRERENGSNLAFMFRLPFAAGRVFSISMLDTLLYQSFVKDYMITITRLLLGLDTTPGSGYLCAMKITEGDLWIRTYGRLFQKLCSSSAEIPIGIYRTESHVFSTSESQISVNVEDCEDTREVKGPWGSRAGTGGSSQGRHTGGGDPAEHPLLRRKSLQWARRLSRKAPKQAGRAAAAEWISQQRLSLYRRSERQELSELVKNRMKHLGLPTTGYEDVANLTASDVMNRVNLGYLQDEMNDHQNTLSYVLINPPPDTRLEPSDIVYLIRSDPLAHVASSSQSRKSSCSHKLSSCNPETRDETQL
Experiment: KCNT1-WT-Basal patch clamp assay (SyncroPatch 384PE, HEK-TREX inducible cell line)
Format: cell-based
Settings: tetracycline inducible HEK-TREX cells; perforated patch; holding -80 mV, 100 ms step to 0 mV; room temperature; read-out: KCNT1 WB IC50
Protocol: KCNT1-WT-Basal—Patch Clamp Assay
Inhibition of KCNT1 (KNa1.1, Slack) was evaluated using a tetracycline inducible cell line (HEK-TREX). Currents were recorded using the SyncroPatch 384PE automated, patch clamp system. Pulse generation and data collection were performed with PatchController384 V1.3.0 and DataController384 V1.2.1 (Nanion Technologies). The access resistance and apparent membrane capacitance were estimated using built-in protocols. Current were recorded in perforated patch mode (10 μM escin) from a population of cells. The cells were lifted, triturated, and resuspended at 800,000 cells/ml. The cells were allowed to recover in the cell hotel prior to experimentation. Currents were recorded at room temperature. The external solution contained the following (in mM): NaCl 105, NMDG 40, KCl 4, MgCl2 1, CaCl2 5 and HEPES 10 (pH=7.4, Osmolarity ˜300 mOsm). The extracellular solution was used as the wash, reference and compound delivery solution. The internal solution contained the following (in mM): NaCl 70, KF 70, KCl 10, EGTA 5, HEPES 5 and Escin 0.01 (pH=7.2, Osmolarity ˜295 mOsm). Escin is made at a 5 mM stock in water, aliquoted, and stored at −20° C. The compound plate was created at 2× concentrated in the extracellular solution. The compound was diluted to 1:2 when added to the recording well. The amount of DMSO in the extracellular solution was held constant at the level used for the highest tested concentration. A holding potential of −80 mV with a 100 ms step to 0 mV was used. Mean current was measured during the step to 0 mV. […] The average mean current from 3 sweeps was calculated and the % inhibition of each compound was calculated. The % Inhibition as a function of the compound concentration was fit with a Hill equation to derive IC50, slope, min and max parameters. If KCNT1 inhibition was less than 50% at the highest tested concentration or if an IC50 could not be calculated, then a percent inhibition was reported in place of the IC50.

IC50 | SMILES
≥ 20000 nM | NS(=O)(=O)c1c[nH]c(C(=O)N[C@@H]2CCc3cc(Cl)ccc32)c1 [Compound I-14]
≤ 1000 nM | CN(C)S(=O)(=O)c1ccc(C(=O)N[C@@H]2CCc3cc(Cl)ccc32)s1 [Compound I-15]
≤ 1000 nM | CNS(=O)(=O)c1ccc(C(=O)N[C@@H]2CCc3cc(Cl)ccc32)s1 [Compound I-16]
≤ 1000 nM | O=C(N[C@@H]1CCc2cc(Cl)ccc21)c1ccc(S(=O)(=O)N2CCCC2)s1 [Compound I-17]
≤ 1000 nM | CS(=O)(=O)c1ccc(C(=O)N[C@@H]2CCc3cc(Cl)ccc32)s1 [Compound I-18]
≤ 1000 nM | O=C(N[C@@H]1CCc2cc(Cl)ccc21)c1ccc(S(=O)(=O)N2CCC2)s1 [Compound I-19]
≤ 1000 nM | NC(=O)c1ccc(C(=O)N[C@@H]2CCc3cc(Cl)ccc32)s1 [Compound I-20]
≤ 1000 nM | O=C(N[C@@H]1CCc2cc(Cl)ccc21)c1ccc(S(=O)(=O)C2CC2)s1 [Compound I-21]
≤ 1000 nM | Cn1nc(C(F)(F)F)cc1C(=O)N[C@@H]1CCc2cc(Cl)ccc21 [Compound I-26]
≤ 1000 nM | CS(=O)(=O)c1ncc(C(=O)N[C@@H]2CCc3cc(Cl)ccc32)s1 [Compound I-27]
≤ 1000 nM | CNC(=O)c1ccc(C(=O)N[C@@H]2CCc3cc(Cl)ccc32)s1 [Compound I-28]
≤ 1000 nM | CN(C)C(=O)c1ccc(C(=O)N[C@@H]2CCc3cc(Cl)ccc32)s1 [Compound I-29]
≤ 1000 nM | CCS(=O)(=O)c1ccc(C(=O)N[C@@H]2CCc3cc(Cl)ccc32)s1 [Compound I-34]
≤ 1000 nM | COCc1ccc(C(=O)N[C@@H]2CCc3cc(Cl)ccc32)s1 [Compound I-36]
≤ 1000 nM | O=C(N[C@@H]1CCc2cc(Cl)ccc21)c1cnc(Cl)s1 [Compound I-37]
1000 to 20000 nM | CN(C)Cc1ccc(C(=O)N[C@@H]2CCc3cc(Cl)ccc32)s1 [Compound I-38]
≤ 1000 nM | CC(=O)N(C)Cc1ccc(C(=O)N[C@@H]2CCc3cc(Cl)ccc32)s1 [Compound I-39]
≤ 1000 nM | O=C(N[C@@H]1CCc2cc(Cl)ccc21)c1ccc(S(=O)(=O)N2CC[C@@H](O)C2)s1 [Compound I-40]
≤ 1000 nM | O=C(N[C@@H]1CCc2cc(Cl)ccc21)c1ccc(S(=O)(=O)N2CC[C@H](O)C2)s1 [Compound I-41]
≤ 1000 nM | CN1CCN(S(=O)(=O)c2ccc(C(=O)N[C@@H]3CCc4cc(Cl)ccc43)s2)CC1 [Compound I-42]
≤ 1000 nM | CO[C@H]1CCN(S(=O)(=O)c2ccc(C(=O)N[C@@H]3CCc4cc(Cl)ccc43)s2)C1 [Compound I-43]
≤ 1000 nM | CC(=O)NCc1ccc(C(=O)N[C@@H]2CCc3cc(Cl)ccc32)s1 [Compound I-44]
≤ 1000 nM | O=C(N[C@@H]1CCc2cc(Cl)ccc21)c1ccc(S(=O)(=O)N2CCOCC2)s1 [Compound I-45]
≤ 1000 nM | CO[C@@H]1CCN(S(=O)(=O)c2ccc(C(=O)N[C@@H]3CCc4cc(Cl)ccc43)s2)C1 [Compound I-46]
≤ 1000 nM | COCCS(=O)(=O)c1ccc(C(=O)N[C@@H]2CCc3cc(Cl)ccc32)s1 [Compound I-47]

IC50 | SMILES
≥ 20000 nM | CS(=O)(=O)Nc1ccc(C(=O)N[C@H]2CCc3cc(Cl)ccc32)cc1 [Compound II-3]
≤ 1000 nM | CS(=O)(=O)Nc1ccc(C(=O)N[C@@H]2CCc3cc(Cl)ccc32)cc1 [Compound II-4, N-[(1R)-5-chloroindan-1-yl]-4-(methanesulfonamido)benzamide]
1000 to 20000 nM | Nc1ccc(C(=O)N[C@@H]2CCc3cc(Cl)ccc32)cc1 [Compound II-9, 4-amino-N-[(1R)-5-chloroindan-1-yl]benzamide]
≤ 1000 nM | CCS(=O)(=O)Nc1ccc(C(=O)N[C@@H]2CCc3cc(Cl)ccc32)cc1 [Compound II-10, N-[(1R)-5-chloroindan-1-yl]-4-(ethylsulfonylamino)benzamide]
1000 to 20000 nM | O=C(N[C@@H]1CCc2cc(Cl)ccc21)c1ccc(NS(=O)(=O)C2CC2)cc1 [Compound II-11, N-[(1R)-5-chloroindan-1-yl]-4-(cyclopropylsulfonylamino)benzamide]
≥ 20000 nM | O=C(N[C@@H]1CCc2cc(Cl)ccc21)c1ccc(NS(=O)(=O)C(F)(F)F)cc1 [Compound II-12]
≤ 1000 nM | CCS(=O)(=O)N(C)c1ccc(C(=O)N[C@@H]2CCc3cc(Cl)ccc32)cc1 [Compound II-13]
≤ 1000 nM | CN(c1ccc(C(=O)N[C@@H]2CCc3cc(Cl)ccc32)cc1)S(=O)(=O)C1CC1 [Compound II-14]
≥ 20000 nM | CCS(=O)(=O)Nc1ccc(C(=O)N[C@H]2CCc3cc(Cl)ccc32)cc1 [Compound II-17, N-[(1S)-5-chloroindan-1-yl]-4-(ethylsulfonylamino)benzamide]
> 20000 nM | O=C(N[C@H]1CCc2cc(Cl)ccc21)c1ccc(NS(=O)(=O)C2CC2)cc1 [Compound II-18, N-[(1S)-5-chloroindan-1-yl]-4-(cyclopropylsulfonylamino)benzamide]
1000 to 20000 nM | CCS(=O)(=O)N(C)c1ccc(C(=O)N[C@H]2CCc3cc(Cl)ccc32)cc1 [Compound II-19]
1000 to 20000 nM | CN(c1ccc(C(=O)N[C@H]2CCc3cc(Cl)ccc32)cc1)S(=O)(=O)C1CC1 [Compound II-20]
1000 to 20000 nM | CN(c1ccc(C(=O)N[C@H]2CCc3cc(Cl)ccc32)cc1)S(=O)(=O)C(F)(F)F [Compound II-21]
≤ 1000 nM | CS(=O)(=O)c1ccc(C(=O)N[C@@H]2CCc3cc(Cl)ccc32)cc1 [Compound II-22]
1000 to 20000 nM | CN(C)C(=O)c1ccc(C(=O)N[C@@H]2CCc3cc(Cl)ccc32)cc1 [Compound II-23]
1000 to 20000 nM | CNC(=O)c1ccc(C(=O)N[C@@H]2CCc3cc(Cl)ccc32)cc1 [Compound II-24]
≤ 1000 nM | NS(=O)(=O)c1ccc(C(=O)N[C@@H]2CCc3cc(Cl)ccc32)cc1 [Compound II-25]
1000 to 20000 nM | NC(=O)c1ccc(C(=O)N[C@@H]2CCc3cc(Cl)ccc32)cc1 [Compound II-26]
≤ 1000 nM | CNS(=O)(=O)c1ccc(C(=O)N[C@@H]2CCc3cc(Cl)ccc32)cc1 [Compound II-27]
≤ 1000 nM | CN(C)S(=O)(=O)c1ccc(C(=O)N[C@@H]2CCc3cc(Cl)ccc32)cc1 [Compound II-28]
≥ 20000 nM | O=C(N[C@H]1CCc2cc(Cl)ccc21)c1ccc(NS(=O)(=O)C(F)(F)F)cc1 [Compound II-29, N-[(1S)-5-chloroindan-1-yl]-4-(trifluoromethylsulfonylamino)benzamide]
≤ 1000 nM | CCS(=O)(=O)c1ccc(C(=O)N[C@@H]2CCc3cc(Cl)ccc32)cc1 [Compound II-30]
≤ 1000 nM | CNS(=O)(=O)Nc1ccc(C(=O)N[C@@H]2CCc3cc(Cl)ccc32)cc1 [Compound II-32]
≥ 20000 nM | Cc1cc(S(C)(=O)=O)ccc1C(=O)N[C@@H]1CCc2cc(Cl)ccc21 [Compound II-33]
1000 to 20000 nM | CN(C)S(=O)(=O)Nc1ccc(C(=O)N[C@@H]2CCc3cc(Cl)ccc32)cc1 [Compound II-34]
